Test results as given in PubChem BioAssay (NCI).
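Step 1: Grow cells in 96-well plates. Step 2: Expose to compound for 48 hours at 5 concentrations. Step 3: Interpolate endpoints linearly; if unreached, use highest concentration. Abbreviation: GI50, concentration required for 50% inhibition of growth. The concentration for full growth arrest is given as TGI.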

Legend:
Assay in all cases: DTP human tumour cell line panel, 48 h
[1] = tested on: 786-0 renal
[2] = tested on: A498 renal
[3] = tested on: A549 NSCLC
[4] = tested on: ACHN renal
[5] = tested on: BT-549 breast
[6] = tested on: CAKI-1 renal
[7] = tested on: CCRF-CEM leukemia
[8] = tested on: COLO 205 colon
[9] = tested on: DU-145 prostate
[10] = tested on: EKVX NSCLC
[11] = tested on: HCC-2998 colon
[12] = tested on: HCT-116 colon
[13] = tested on: HCT-15 colon
[14] = tested on: HOP-62 NSCLC
[15] = tested on: HOP-92 NSCLC
[16] = tested on: HS 578T breast
[17] = tested on: HT29 colon
[18] = tested on: IGROV1 ovarian
[19] = tested on: K-562 leukemia
[20] = tested on: KM12 colon
[21] = tested on: LOX IMVI melanoma
[22] = tested on: M14 melanoma
[23] = tested on: MALME-3M melanoma
[24] = tested on: MCF7 breast
[25] = tested on: MDA-MB-231 breast
[26] = tested on: MDA-MB-435
[27] = tested on: MOLT-4 leukemia
[28] = tested on: NCI-H226 lung
[29] = tested on: NCI-H23 lung
[30] = tested on: NCI-H460 lung
[31] = tested on: NCI-H522 lung
[32] = tested on: NCI/ADR-RES ovarian
[33] = tested on: OVCAR-3 ovarian
[34] = tested on: OVCAR-4 ovarian
[35] = tested on: OVCAR-5 ovarian
[36] = tested on: OVCAR-8 ovarian
[37] = tested on: PC-3 prostate
[38] = tested on: RPMI-8226 leukemia
[39] = tested on: RXF 393 renal
[40] = tested on: SF-268 CNS
[41] = tested on: SF-295 CNS
[42] = tested on: SF-539 CNS
[43] = tested on: SK-MEL-2 melanoma
[44] = tested on: SK-MEL-28 melanoma
[45] = tested on: SK-MEL-5 melanoma
[46] = tested on: SK-OV-3 ovarian
[47] = tested on: SN12C renal
[48] = tested on: SNB-19 CNS
[49] = tested on: SNB-75 CNS
[50] = tested on: SR leukemia
[51] = tested on: SW-620 colon
[52] = tested on: T-47D breast
[53] = tested on: TK-10 renal
[54] = tested on: U251 CNS
[55] = tested on: UACC-257 melanoma
[56] = tested on: UACC-62 melanoma
[57] = tested on: UO-31 renal

## Nc1n[nH]c2cccc(C#Cc3cccc(C(=O)Nc4cc(CN5CCOCC5)cc(C(F)(F)F)c4)c3)c12
[1]
  GI50: 3.97 µM
  TGI: 15 µM
[2]
  GI50: 1.75 µM
  TGI: 9.53 µM
[3]
  GI50: 5.32 µM
  TGI: 19.7 µM
[4]
  GI50: 3.06 µM
  TGI: 11.8 µM
[5]
  GI50: 4.33 µM
  TGI: 18.8 µM
[6]
  GI50: 5.11 µM
  TGI: 19.4 µM
[7]
  GI50: 3.68 µM
  TGI: 20.3 µM
[8]
  GI50: 2.7 µM
  TGI: 11.1 µM
[9]
  GI50: 9.82 µM
  TGI: 23.8 µM
[10]
  GI50: 5.58 µM
  TGI: 19.9 µM
[11]
  GI50: 3.3 µM
  TGI: 12.2 µM
[12]
  GI50: 2 µM
  TGI: 11.1 µM
[13]
  GI50: 3.57 µM
  TGI: 15.2 µM
[14]
  GI50: 4.5 µM
  TGI: 18.1 µM
[15]
  GI50: 2.78 µM
  TGI: 9.61 µM
[16]
  GI50: 2.75 µM
  TGI: 34.1 µM
[17]
  GI50: 3.13 µM
  TGI: 16.2 µM
[18]
  GI50: 3.23 µM
  TGI: 11.7 µM
[19]
  GI50: 0.0651 µM
  TGI: 2.41 µM
[20]
  GI50: 3.43 µM
  TGI: 14.7 µM
[21]
  GI50: 1.87 µM
  TGI: 5.63 µM
[22]
  GI50: 2.13 µM
  TGI: 8.32 µM
[23]
  GI50: 1.63 µM
  TGI: 9.88 µM
[24]
  GI50: 3.28 µM
  TGI: 15.6 µM
[25]
  GI50: 1.65 µM
  TGI: 6.8 µM
[26]
  GI50: 3.46 µM
  TGI: 15.2 µM
[27]
  GI50: 2.76 µM
  TGI: 13.3 µM
[28]
  GI50: 1.72 µM
  TGI: 9.68 µM
[29]
  GI50: 3.56 µM
  TGI: 18.8 µM
[30]
  GI50: 4.11 µM
  TGI: 16.9 µM
[31]
  GI50: 3.62 µM
  TGI: 16.2 µM
[32]
  GI50: 4.59 µM
  TGI: 23.3 µM
[33]
  GI50: 7.41 µM
  TGI: 31.3 µM
[34]
  GI50: 5.8 µM
  TGI: 23.1 µM
[35]
  GI50: 3.37 µM
  TGI: 25.7 µM
[36]
  GI50: 4.63 µM
  TGI: 20.6 µM
[37]
  GI50: 4.39 µM
  TGI: 19 µM
[38]
  GI50: 3.19 µM
  TGI: 27.3 µM
[39]
  GI50: 2.21 µM
  TGI: 7.92 µM
[40]
  GI50: 5.66 µM
  TGI: 22.1 µM
[41]
  GI50: 3.46 µM
  TGI: 14.2 µM
[42]
  GI50: 2.4 µM
  TGI: 12 µM
[43]
  GI50: 2.62 µM
  TGI: 10.6 µM
[44]
  GI50: 2.99 µM
  TGI: 12.1 µM
[45]
  GI50: 4.34 µM
  TGI: 16 µM
[46]
  GI50: 15.5 µM
  TGI: 34.8 µM
[47]
  GI50: 3.71 µM
  TGI: 16.4 µM
[48]
  GI50: 5.23 µM
  TGI: 20.3 µM
[49]
  GI50: 5.51 µM
  TGI: 19.3 µM
[50]
  GI50: 2.69 µM
  TGI: 22.9 µM
[51]
  GI50: 4.59 µM
  TGI: 24.3 µM
[52]
  GI50: 2.23 µM
  TGI: 10.2 µM
[53]
  GI50: 11.4 µM
  TGI: 27.5 µM
[54]
  GI50: 5.57 µM
  TGI: 19.2 µM
[55]
  GI50: 4.63 µM
  TGI: 18.1 µM
[56]
  GI50: 1.99 µM
  TGI: 8.34 µM
[57]
  GI50: 2.03 µM
  TGI: 11.1 µM
